The values that follow come from patent publication US8232308B2, “Methods for treating a disease in which Rho kinase is involved” (UBE Industries, Ltd., priority 2003, dated 2012).

Each structure is given as a SMILES string. Counter-ions that a name gives are not always drawn.

The test deals with T1, activated ROCK II (Rattus norvegicus, UniProt Q62868).
T1 construct: purchased Upstate Biotechnology 14-338
T1 sequence (Q62868 11-550 limits assumed): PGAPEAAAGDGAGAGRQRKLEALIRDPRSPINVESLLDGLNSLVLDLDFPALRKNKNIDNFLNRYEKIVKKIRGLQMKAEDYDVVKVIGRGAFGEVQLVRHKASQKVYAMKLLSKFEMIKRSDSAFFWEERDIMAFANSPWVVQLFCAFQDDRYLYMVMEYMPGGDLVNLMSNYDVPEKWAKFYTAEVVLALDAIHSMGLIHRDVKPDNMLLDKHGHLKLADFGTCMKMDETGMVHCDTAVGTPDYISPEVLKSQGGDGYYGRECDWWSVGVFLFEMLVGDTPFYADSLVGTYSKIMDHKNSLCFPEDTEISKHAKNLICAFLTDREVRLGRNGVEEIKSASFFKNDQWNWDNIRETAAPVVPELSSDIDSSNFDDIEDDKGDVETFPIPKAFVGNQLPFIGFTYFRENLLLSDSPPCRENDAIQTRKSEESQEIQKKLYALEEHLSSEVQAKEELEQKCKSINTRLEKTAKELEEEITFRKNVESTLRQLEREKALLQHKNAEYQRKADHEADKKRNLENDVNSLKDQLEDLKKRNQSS
The test is described as follows: Test for Evaluation of Inhibiting Activity to Rho Kinase. Format: biochemical. The conditions noted are these: S6 Kinase Substrate Peptide, [γ-32P]ATP, 30° C. for 15 minutes, Ki=IC50/(1+S/Km). On the procedure:
In order to find the utility of the present invention compound, a Rho kinase inhibiting activity of the present invention compound was evaluated. The details thereof will be illustrated under the item of “Pharmacological Test (Test for Evaluation of Rho Kinase Inhibiting Activity)” in the Examples which will be mentioned later. The evaluation of the Rho kinase inhibiting activity of the present invention compound was carried out in accordance with the methods mentioned in J. Biol. Chem., 274, 32418 (1999) by Kaibuchi, et al. and mentioned in the instruction manual for use attached to the commercially available activated ROCK II [Upstate Biotechnology, Catalog No. 14-338 (5 units/50 μl)].
A. Test for Evaluation of Inhibiting Activity to Rho Kinase
In order to test the usefulness of the compounds of the present invention as a Rho kinase inhibitor, inhibiting activities of the compounds of the present invention to Rho kinase were evaluated and investigated in accordance with the methods of Kaibuchi, et al. mentioned in J. Biol. Chem., 274, 32418, 1999 and also with the methods mentioned in the instruction manual for use attached to commercially available activated ROCK II [Upstate Biotechnology, Catalog No. 14-338, (5 unite/50 μl)]. With regard to the test compounds, the compounds 5-1 to 5-73 (except the compounds 5-2, 5-9, 5-18, 5-37 and 5-38) were used.
A buffer was prepared so as to make tris(hydroxymethyl)aminomethane (Tris) (pH 7.5), 50 mM, ethyleneglycol bis(β-aminoethyl ether)-N,N,N′,N′-tetraacetic acid (EGTA), 2 mM, ethylenediaminetetraacetic acid (EDTA), 1 mM, magnesium chloride (MgCl2) 5 mM, β-glycerol phosphate, 5 mM, and dithiothreitol (DTT), 2 mM, by mixing them.
A mixed liquid of a 10 mM ATP solution with a commercially available [γ-^32P]ATP solution [NEN, Code No. NEG-002A] was diluted with the buffer to prepare a 300 μM ATP [γ-^32P]ATP solution.
A Commercially Available Activated ROCK II [Upstate Biotechnology, Catalog No. 14-338, (5 Units/50 μl)] was diluted to a concentration of 1/100 with the buffer to prepare an activated ROCK II solution.
A S6 Kinase Substrate Peptide [Upstate Biotechnology, Catalog No. 12-124,] (2 mg) was dissolved in distilled water to prepare a 1 mM substrate solution.
A test compound was dissolved in 10% aqueous dimethyl sulfoxide solution.
1) The test compound solution is placed in a microtube.
2) The 300 μM ATP [γ-^32P]ATP solution is added to the microtube followed by cooling to 4° C.
3) After that, a permanently activated ROCK II solution, 1 mM substrate solution and buffer are added to each microtube in that order, and the whole is mixed and cooled again at 4° C.
4) The microtube is placed in an incubator (30° C.) and the mixture is subjected to reaction for 15 minutes.
5) After cooling to 4° C., a 250 mM phosphoric acid solution (5 μl) is added to each microtube to stop the reaction.
6) The reaction solution (30 μl) is taken out from each microtube and spotted on a filter paper (Whatman P81) so that the reaction product (phosphorylated substrate) is adsorbed to the filter paper.
7) The filter paper is transferred to a beaker in which a 75 mM phosphoric acid solution is placed and shaken for 5 minutes so that unreacted [γ-^32P]AfP is washed out. The washing operation as such is carried out four times.
8) After that, the filter paper is dipped in ethanol to dehydrate and energy amount (radioactivity) of the reaction product adsorbed to the filter paper is measured with a liquid scintillation counter.
The IC50 value was calculated by an XL-fit (IDBS).
The Ki value is calculated by the following formula. S is an ATP concentration contained in the reaction solution while Km is a Michaelis-Menten constant. Ki=IC50/(1+S/Km)
As to `CC(C)Oc1c(-c2ccc(C(C)(C)N)cc2)ccc2[nH]ncc12` [Compound 5-40, 5-[4-(1-Amino-1-methylethyl)phenyl]-4-isopropoxy-1H-indazole dihydrochloride], the Ki (as a rule, the equilibrium dissociation constant of an inhibitor or competing ligand from its target) was 33 nM.

For `CC(C)(N)c1ccc(-c2ccc3[nH]ncc3c2-c2ccncc2)cc1` [Compound 5-61, 5-[4-(1-Amino-1-methylethyl)phenyl]-4-(pyridin-4-yl)-1H-indazole trihydrochloride], the Ki stood at 45 nM.

In turn, `CC(C)(N)c1ccc(-c2ccc3[nH]nc(C(N)=O)c3c2)cc1` [Compound 5-10, 3-Aminocarbonyl-5-[4-(1-amino-1-methylethyl)phenyl]-1H-indazole monohydrochloride] gave a Ki of 134 nM. This Ki lies about 3-fold higher than the previous one.

In the case of `CC(C)(N)c1ccc(-c2ccc3[nH]nc(CO)c3c2)cc1` [Compound 5-14, 5-[4-(1-Amino-1-methylethyl)phenyl]-3-hydroxymethyl-1H-indazole dihydrochloride], the Ki worked out at 142 nM.

On to `CCOc1c(-c2ccc(C(C)(C)N)cc2)ccc2[nH]ncc12` [Compound 5-49, 5-[4-(1-Amino-1-methylethyl)phenyl]-4-ethoxy-1H-indazole dihydrochloride], for which the Ki was determined as 17 nM.

`COC(=O)c1n[nH]c2ccc(-c3ccc(C(C)(C)N)cc3)cc12` [Compound 5-8, 5-[4-(1-Amino-1-methylethyl)phenyl]-3-methoxy-carbonyl-1H-indazole dihydrochloride] registered a Ki of 97 nM.

Compound `CC(C)(N)c1ccc(-c2ccc3[nH]ncc3c2OC(F)F)cc1` [Compound 5-53, 5-[4-(1-Amino-1-methylethyl)phenyl]-4-difluoro-methoxy-1H-indazole dihydrochloride] gave a Ki of 3.6 nM.

On to `CN(C)c1c(-c2ccc(CN)cc2)ccc2[nH]ncc12` [Compound 5-23, 5-[4-(Aminomethyl)phenyl]-4-dimethylamino-1H-indazole trihydrochloride], for which the Ki came out at 29 nM.

`CN(C)c1c(-c2ccc(C3(N)CCCC3)cc2)ccc2[nH]ncc12` [Compound 5-24, 5-[4-(1-Aminocyclopentyl)phenyl]-4-dimethylamino-1H-indazole trihydrochloride] returned a Ki of 14 nM. This Ki lies about 2.1-fold lower than the previous one.

Compound `COc1c(-c2ccc(C(C)(C)N)cc2)ccc2[nH]ncc12` [Compound 5-44, 5-[4-(1-Amino-1-methylethyl)phenyl]-4-methoxy-1H-indazole dihydrochloride] returned a Ki of 13 nM.

`CC(C)(N)c1ccc(-c2ccc3[nH]ncc3c2OCC(F)(F)F)cc1` [Compound 5-54, 5-[4-(1-Amino-1-methylethyl)phenyl]-4-(2,2,2-tri-fluoroethoxy)-1H-indazole dihydrochloride] displayed a Ki of 31 nM.

As to `CCOc1c(-c2ccc(C(N)(CC)CC)cn2)ccc2[nH]ncc12` [Compound 5-60, 5-[5-(1-Amino-1-ethylpropyl)pyridin-2-yl]-4-ethoxy-1H-indazole trihydrochloride], the Ki was 35 nM.

In turn, `CC(C)(N)c1ccc(-c2ccc3[nH]ncc3c2[N+](=O)[O-])cc1` [Compound 5-4, 5-[4-(1-Amino-1-methylethyl)phenyl]-4-nitro-1H-indazole monohydrochloride] came in with a Ki of 28 nM.

As to `CC(C)(N)c1ccc(-c2ccc3[nH]ncc3c2-c2cn[nH]c2)nc1` [Compound 5-65, 5-[5-(1-Amino-1-methylethyl)pyridin-2-yl]-4-(pyrazol-4-yl)-1H-indazole tetrahydrochloride], the Ki is 56 nM. Compared with the last compound, the Ki is about 2-fold higher.

Compound `CC(C)(N)c1ccc(-c2ccc3[nH]ncc3c2)cc1` [Compound 5-1, 5-[4-(1-amino-1-methylethyl)phenyl]-1H-indazole dihydrochloride] had a Ki of 19 nM.

In turn, `CC(C)(N)c1ccc(-c2ccc3[nH]ncc3c2CO)cc1` [Compound 5-35, 5-[4-(1-Amino-1-methylethyl)phenyl]-4-hydroxymethyl-1H-indazole dihydrochloride] gave a Ki of 139 nM.
